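Grown in 96-well plates, cells were treated for 48 hours with each compound at five concentrations. Insufficient inhibition: endpoint recorded as highest concentration tested. GI50 is the concentration that inhibits growth by half.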 Active and inactive are the calls of the source. Cut-off read from the data, not from the text of the source: active = GI50 up to about 1.1 µM and inactive = higher.
Columns and labels:
Assay in all cases: NCI tumour cell line growth inhibition, 48 h
SNB-19 = test system: SNB-19
SF-268 = test system: SF-268
NCI-H460 = test system: NCI-H460
MOLT-4 = test system: MOLT-4
SR = test system: SR
LOX IMVI = test system: LOX IMVI
OVCAR-3 = test system: OVCAR-3
RXF 393 = test system: RXF 393
MDA-N = test system: MDA-N
CCRF-CEM = test system: CCRF-CEM
SNB-75 = test system: SNB-75
Malme-3M = test system: Malme-3M
HCT-15 = test system: HCT-15
HCT-116 = test system: HCT-116
SK-MEL-2 = test system: SK-MEL-2
M14 = test system: M14
NCI-H23 = test system: NCI-H23
SF-295 = test system: SF-295
MDA-MB-435 = test system: MDA-MB-435

SMILES | GI50 (SNB-19) | GI50 (SF-268) | GI50 (NCI-H460) | GI50 (MOLT-4) | GI50 (SR) | GI50 (LOX IMVI) | GI50 (OVCAR-3) | GI50 (RXF 393) | GI50 (MDA-N) | GI50 (CCRF-CEM) | GI50 (SNB-75) | GI50 (Malme-3M) | GI50 (HCT-15) | GI50 (HCT-116) | GI50 (SK-MEL-2) | GI50 (M14) | GI50 (NCI-H23) | GI50 (SF-295) | GI50 (MDA-MB-435)
OCC1OC(NCCNCCNC2OC(CO)C(O)C(O)C2O)C(O)C(O)C1O (configuration not stated) | > 100 µM (inactive) | > 100 µM (inactive) | > 100 µM (inactive) | > 100 µM (inactive) | > 100 µM (inactive) | > 100 µM (inactive) | > 100 µM (inactive) | > 100 µM (inactive) | > 100 µM (inactive) | > 100 µM (inactive) | > 100 µM (inactive) | > 100 µM (inactive) | > 100 µM | > 100 µM (inactive) | > 100 µM (inactive) | > 100 µM (inactive) | > 100 µM (inactive) | > 100 µM (inactive) | 
O=C(/C=C/c1csc(-c2ccccc2)n1)NCc1ccc(C(=O)NCc2ccccc2)cc1 | 26.5 µM (inactive) | 35.3 µM (inactive) | > 100 µM (inactive) | > 100 µM (inactive) | > 100 µM (inactive) | > 100 µM (inactive) | > 100 µM (inactive) | 61 µM (inactive) |  | > 100 µM (inactive) | 19.2 µM (inactive) | 92 µM (inactive) | > 100 µM | > 100 µM (inactive) | > 100 µM (inactive) | > 100 µM (inactive) | > 100 µM (inactive) | 30.4 µM (inactive) | > 100 µM (inactive)
CC1(C)CC(=O)C(=CNC(=O)c2ccncc2)C(=O)C1 | > 100 µM (inactive) | > 100 µM (inactive) | > 100 µM (inactive) | > 100 µM (inactive) |  | > 100 µM (inactive) | > 100 µM (inactive) | > 100 µM (inactive) | > 100 µM (inactive) | > 100 µM (inactive) | > 100 µM (inactive) |  | > 100 µM | > 100 µM (inactive) | > 100 µM (inactive) | > 100 µM (inactive) | > 100 µM (inactive) | > 100 µM (inactive) | > 100 µM (inactive)
COC1(C)CC2N(C(=O)c3ccccc3)N=C(c3ccccc3)CC2(C)O1 (configuration not stated) | > 100 µM (inactive) | > 100 µM (inactive) | 69.5 µM (inactive) | 61.7 µM (inactive) |  | > 100 µM (inactive) | > 100 µM (inactive) |  |  | 84.5 µM (inactive) | > 100 µM (inactive) | > 100 µM (inactive) | > 100 µM | > 100 µM (inactive) | > 100 µM (inactive) | > 100 µM (inactive) |  | > 100 µM (inactive) | 
